{"source": "ChEMBL document CHEMBL4118101", "about": "(Bioorg Med Chem, 2018)", "key": {"[1]": {"assay": "Hemolytic activity in mouse RBC at 62.5 ug/ml after 1 hr relative to control", "type": "ADME, cell-based, Erythrocyte", "conditions": "mouse red blood cells (erythrocytes), read-out: Activity"}, "Cryptococcus neoformans [2]": {"tested_on": "Cryptococcus neoformans", "assay": "Antifungal activity against Cryptococcus neoformans isolate CN2 measured after 48 hrs by CLSI M27-A3 protocol based method", "type": "functional", "conditions": "Cryptococcus neoformans, isolate CN2, 48 h; read-out: MIC"}, "Candida albicans [3]": {"tested_on": "Candida albicans", "assay": "Antifungal activity against Candida albicans ATCC 10231 measured after 48 hrs by CLSI M27-A3 protocol based method", "type": "functional", "conditions": "ATCC 10231, 48 h"}, "Candida albicans [4]": {"tested_on": "Candida albicans", "assay": "Antifungal activity against Candida albicans ATCC 64124 measured after 48 hrs by CLSI M27-A3 protocol based method", "type": "functional", "conditions": "Candida albicans, ATCC 64124, 48 h; read-out: MIC"}, "Candida albicans [5]": {"tested_on": "Candida albicans", "assay": "Antifungal activity against fluconazole/ITC-susceptible Candida albicans ATCC MYA-2876 measured after 48 hrs by CLSI M27-A3 protocol based method", "type": "functional", "conditions": "Candida albicans, ATCC MYA-2876, 48 h"}, "Candida albicans [6]": {"tested_on": "Candida albicans", "assay": "Antifungal activity against fluconazole/ITC-resistant Candida albicans ATCC 90819 measured after 48 hrs by CLSI M27-A3 protocol based method", "type": "functional", "conditions": "Candida albicans, ATCC 90819, 48 h; read-out: MIC"}, "Candida albicans [7]": {"tested_on": "Candida albicans", "assay": "Antifungal activity against fluconazole/ITC-susceptible Candida albicans ATCC MYA-2310 measured after 48 hrs by CLSI M27-A3 protocol based method", "type": "functional", "conditions": "Candida albicans, ATCC MYA-2310, 48 h; read-out: MIC"}, "Candida albicans [8]": {"tested_on": "Candida albicans", "assay": "Antifungal activity against fluconazole/ITC-resistant Candida albicans ATCC MYA-1237 measured after 48 hrs by CLSI M27-A3 protocol based method", "type": "functional", "conditions": "Candida albicans, ATCC MYA-1237, 48 h; read-out: MIC"}, "Candida albicans [9]": {"tested_on": "Candida albicans", "assay": "Antifungal activity against fluconazole/ITC-resistant Candida albicans ATCC MYA-1003 measured after 48 hrs by CLSI M27-A3 protocol based method", "type": "functional", "conditions": "Candida albicans, ATCC MYA-1003, 48 h; read-out: MIC"}, "Nakaseomyces glabratus [10]": {"tested_on": "Nakaseomyces glabratus", "assay": "Antifungal activity against Candida glabrata ATCC 2001 measured after 48 hrs by CLSI M27-A3 protocol based method", "type": "functional, CBS 138", "conditions": "Nakaseomyces glabratus, CBS 138, 48 h; read-out: MIC"}, "Pichia kudriavzevii": {"tested_on": "Pichia kudriavzevii", "assay": "Antifungal activity against Candida krusei ATCC 6258 measured after 48 hrs by CLSI M27-A3 protocol based method", "type": "functional", "conditions": "Pichia kudriavzevii, ATCC 6258, 48 h"}, "Candida parapsilosis [11]": {"tested_on": "Candida parapsilosis", "assay": "Antifungal activity against Candida parapsilosis ATCC 22019 measured after 48 hrs by CLSI M27-A3 protocol based method", "type": "functional", "conditions": "Lodderomyces parapsilosis, ATCC 22019, 48 h"}, "Aspergillus nidulans [12]": {"tested_on": "Aspergillus nidulans", "assay": "Antifungal activity against Aspergillus nidulans ATCC 38163 measured after 48 hrs by CLSI M38-A2 protocol based method", "type": "functional", "conditions": "ATCC 38163, 48 h"}, "Aspergillus flavus": {"tested_on": "Aspergillus flavus", "assay": "Antifungal activity against Aspergillus flavus ATCC MYA-3631 measured after 48 hrs by CLSI M38-A2 protocol based method", "type": "functional", "conditions": "ATCC MYA-3631, 48 h"}, "Aspergillus terreus": {"tested_on": "Aspergillus terreus", "assay": "Antifungal activity against Aspergillus terreus ATCC MYA-3633 measured after 48 hrs by CLSI M38-A2 protocol based method", "type": "functional", "conditions": "ATCC MYA-3633, 48 h"}, "Nakaseomyces glabratus [13]": {"tested_on": "Nakaseomyces glabratus", "assay": "Antifungal activity against Candida glabrata isolate CG1 measured after 48 hrs by CLSI M27-A3 protocol based method", "type": "functional", "conditions": "Nakaseomyces glabratus, 48 h; read-out: MIC"}, "Nakaseomyces glabratus [14]": {"tested_on": "Nakaseomyces glabratus", "assay": "Antifungal activity against Candida glabrata isolate CG2 measured after 48 hrs by CLSI M27-A3 protocol based method", "type": "functional", "conditions": "Nakaseomyces glabratus, isolate CG2, 48 h; read-out: MIC"}, "Nakaseomyces glabratus [15]": {"tested_on": "Nakaseomyces glabratus", "assay": "Antifungal activity against Candida glabrata isolate CG3 measured after 48 hrs by CLSI M27-A3 protocol based method", "type": "functional", "conditions": "Nakaseomyces glabratus, 48 h; read-out: MIC"}, "Candida parapsilosis [16]": {"tested_on": "Candida parapsilosis", "assay": "Antifungal activity against Candida parapsilosis isolate CP1 measured after 48 hrs by CLSI M27-A3 protocol based method", "type": "functional", "conditions": "Lodderomyces parapsilosis, isolate CP1, 48 h"}, "Candida parapsilosis [17]": {"tested_on": "Candida parapsilosis", "assay": "Antifungal activity against Candida parapsilosis isolate CP2 measured after 48 hrs by CLSI M27-A3 protocol based method", "type": "functional", "conditions": "Lodderomyces parapsilosis, isolate CP2, 48 h"}, "Cryptococcus neoformans [18]": {"tested_on": "Cryptococcus neoformans", "assay": "Antifungal activity against Cryptococcus neoformans isolate CN1 measured after 48 hrs by CLSI M27-A3 protocol based method", "type": "functional", "conditions": "isolate CN1, 48 h"}, "Cryptococcus neoformans [19]": {"tested_on": "Cryptococcus neoformans", "assay": "Antifungal activity against Cryptococcus neoformans isolate CN3 measured after 48 hrs by CLSI M27-A3 protocol based method", "type": "functional", "conditions": "Cryptococcus neoformans, isolate CN3, 48 h; read-out: MIC"}, "Candida parapsilosis [20]": {"tested_on": "Candida parapsilosis", "assay": "Antifungal activity against Candida parapsilosis isolate CP3 measured after 48 hrs by CLSI M27-A3 protocol based method", "type": "functional", "conditions": "Lodderomyces parapsilosis, isolate CP3, 48 h"}, "Candida albicans [21]": {"tested_on": "Candida albicans", "assay": "Antifungal activity against Candida albicans ATCC 10231 measured after 48 hrs in presence of 10% FBS by CLSI M27-A3 protocol based method", "type": "functional", "conditions": "Candida albicans, ATCC 10231, 48 h"}, "Candida parapsilosis [22]": {"tested_on": "Candida parapsilosis", "assay": "Antifungal activity against Candida parapsilosis ATCC 22019 measured after 48 hrs in presence of 10% FBS by CLSI M27-A3 protocol based method", "type": "functional", "conditions": "Lodderomyces parapsilosis, ATCC 22019, 48 h"}, "Aspergillus nidulans [23]": {"tested_on": "Aspergillus nidulans", "assay": "Antifungal activity against Aspergillus nidulans ATCC 38163 measured after 48 hrs in presence of 10% FBS by CLSI M38-A2 protocol based method", "type": "functional", "conditions": "ATCC 38163, 48 h"}, "Candida albicans [24]": {"tested_on": "Candida albicans", "assay": "Fungistatic activity against Candida albicans ATCC 10231 at 4 times MIC incubated for 24 hrs by time kill assay", "type": "functional, organism-based"}, "Candida parapsilosis [25]": {"tested_on": "Candida parapsilosis", "assay": "Fungistatic activity against Candida parapsilosis ATCC 22019 up to 4 times MIC incubated for 24 hrs by time kill assay", "type": "functional, organism-based"}, "[26]": {"assay": "Hemolytic activity in mouse RBC at 0.48 ug/ml after 1 hr relative to control", "type": "ADME, cell-based, Erythrocyte", "conditions": "mouse red blood cells (erythrocytes), read-out: Activity"}, "[27]": {"assay": "Hemolytic activity in mouse RBC at […] ug/ml after 1 hr relative to control", "type": "ADME, cell-based, Erythrocyte", "conditions": "mouse red blood cells (erythrocytes), read-out: Activity"}, "[28]": {"assay": "Hemolytic activity in mouse RBC at 1.95 ug/ml after 1 hr relative to control", "type": "ADME, cell-based, Erythrocyte", "conditions": "mouse red blood cells (erythrocytes), at 1.95 µg/mL, read-out: Activity"}, "[29]": {"assay": "Hemolytic activity in mouse RBC at 3.9 ug/ml after 1 hr relative to control", "type": "ADME, cell-based, Erythrocyte", "conditions": "mouse red blood cells (erythrocytes), read-out: Activity"}, "[30]": {"assay": "Hemolytic activity in mouse RBC at 7.8 ug/ml after 1 hr relative to control", "type": "ADME, cell-based, Erythrocyte", "conditions": "mouse red blood cells (erythrocytes), read-out: Activity"}, "[31]": {"assay": "Hemolytic activity in mouse RBC at 31.3 ug/ml after 1 hr relative to control", "type": "ADME, cell-based, Erythrocyte", "conditions": "mouse red blood cells (erythrocytes), at 31.3 µg/mL, read-out: Activity"}, "HEK293": {"tested_on": "HEK293", "assay": "Cytotoxicity against HEK293 cells at 7.8 ug/ml after 24 hrs by resazurin based assay", "type": "cell-based", "conditions": "human, hek293, 24 h"}, "Candida albicans [32]": {"tested_on": "Candida albicans", "assay": "Induction of membrane permeabilization in Candida albicans ATCC 10231 assessed as membrane disruption at 4 times MIC after 1 hr by propidium iodide staining based fluorescence microscopy", "type": "functional, organism-based"}}, "note": "Active and inactive are the calls of the source. No cut-off for these calls is given here."}
{"compound": "CCCCCCCCCCNCC(O)(Cn1cncn1)c1ccc(F)cc1F", "note": "(configuration not stated)", "values": [{"measurement": "hemolysis at 1 h, 62.5 ug/ml", "setting": "[1]", "result": 100, "unit": "%"}, {"measurement": "MIC", "setting": "Cryptococcus neoformans [2]", "result": 0.61, "unit": "µM"}, {"measurement": "MIC", "setting": "Candida albicans [3]", "result": 1.2, "unit": "µM"}, {"measurement": "MIC", "setting": "Candida albicans [4]", "result": 39.5, "unit": "µM"}, {"measurement": "MIC", "setting": "Candida albicans [5]", "result": 9.9, "unit": "µM"}, {"measurement": "MIC", "setting": "Candida albicans [6]", "result": 9.9, "unit": "µM"}, {"measurement": "MIC", "setting": "Candida albicans [7]", "result": 19.8, "unit": "µM"}, {"measurement": "MIC", "setting": "Candida albicans [8]", "result": 19.8, "unit": "µM"}, {"measurement": "MIC", "setting": "Candida albicans [9]", "result": 19.8, "unit": "µM"}, {"measurement": "MIC", "setting": "Nakaseomyces glabratus [10]", "result": "1.2 to 2.5", "unit": "µM"}, {"measurement": "MIC", "setting": "Pichia kudriavzevii", "result": 1.2, "unit": "µM"}, {"measurement": "MIC", "setting": "Candida parapsilosis [11]", "result": 0.08, "unit": "µM"}, {"measurement": "MIC", "setting": "Aspergillus nidulans [12]", "result": 2.5, "unit": "µM"}, {"measurement": "MIC", "setting": "Aspergillus flavus", "result": 19.8, "unit": "µM"}, {"measurement": "MIC", "setting": "Aspergillus terreus", "result": 9.9, "unit": "µM"}, {"measurement": "MIC", "setting": "Nakaseomyces glabratus [13]", "result": 4.9, "unit": "µM"}, {"measurement": "MIC", "setting": "Nakaseomyces glabratus [14]", "result": 1.2, "unit": "µM"}, {"measurement": "MIC", "setting": "Nakaseomyces glabratus [15]", "result": 9.9, "unit": "µM"}, {"measurement": "MIC", "setting": "Candida parapsilosis [16]", "result": 0.15, "unit": "µM"}, {"measurement": "MIC", "setting": "Candida parapsilosis [17]", "result": 0.3, "unit": "µM"}, {"measurement": "MIC", "setting": "Cryptococcus neoformans [18]", "result": 0.61, "unit": "µM"}, {"measurement": "MIC", "setting": "Cryptococcus neoformans [19]", "result": 1.2, "unit": "µM"}, {"measurement": "MIC", "setting": "Candida parapsilosis [20]", "result": 0.61, "unit": "µM"}, {"measurement": "MIC", "setting": "Candida albicans [21]", "result": 0.48, "unit": "µg/mL"}, {"measurement": "MIC", "setting": "Candida parapsilosis [22]", "result": 0.06, "unit": "µg/mL"}, {"measurement": "MIC", "setting": "Aspergillus nidulans [23]", "result": 1.95, "unit": "µg/mL"}, {"measurement": "Activity", "setting": "Candida albicans [24]", "result": "Active"}, {"measurement": "Activity", "setting": "Candida parapsilosis [25]", "result": "Active"}, {"measurement": "hemolysis at 1 h, 0.48 ug/ml", "setting": "[26]", "result": 0, "unit": "%"}, {"measurement": "hemolysis at 1 h, 0.975 ug/ml", "setting": "[27]", "result": 0, "unit": "%"}, {"measurement": "hemolysis at 1 h, 15.6 ug/ml", "setting": "[27]", "result": 33, "unit": "%"}, {"measurement": "hemolysis at 1 h, 1.95 ug/ml", "setting": "[28]", "result": 2, "unit": "%"}, {"measurement": "hemolysis at 1 h, 3.9 ug/ml", "setting": "[29]", "result": 3, "unit": "%"}, {"measurement": "hemolysis at 1 h, 7.8 ug/ml", "setting": "[30]", "result": 8, "unit": "%"}, {"measurement": "hemolysis at 1 h, 31.3 ug/ml", "setting": "[31]", "result": 92, "unit": "%"}, {"measurement": "Activity", "setting": "HEK293", "result": "Non-Toxic"}, {"measurement": "Activity", "setting": "Candida albicans [32]", "result": "inactive"}]}
